Assay results taken from PubChem BioAssay (NCI).
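GI50 marks 50% less growth. TGI is the concentration that stops growth completely.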

Tests used:
Test in all cases: NCI tumour cell line growth inhibition, 384-well format
786-0 renal = tested on: 786-0 renal
A498 renal = tested on: A498 renal
A549 NSCLC = tested on: A549 NSCLC
ACHN renal = tested on: ACHN renal
BT-549 breast = tested on: BT-549 breast
COLO 205 colon = tested on: COLO 205 colon
DU-145 prostate = tested on: DU-145 prostate
EKVX NSCLC = tested on: EKVX NSCLC
HCC-2998 colon = tested on: HCC-2998 colon
HCT-15 colon = tested on: HCT-15 colon
HL-60(TB) leukemia = tested on: HL-60(TB) leukemia
HOP-62 NSCLC = tested on: HOP-62 NSCLC
HS 578T breast = tested on: HS 578T breast
HT29 colon = tested on: HT29 colon
K-562 leukemia = tested on: K-562 leukemia
KM12 colon = tested on: KM12 colon
LOX IMVI melanoma = tested on: LOX IMVI melanoma
M14 melanoma = tested on: M14 melanoma
MALME-3M melanoma = tested on: MALME-3M melanoma
MCF7 breast = tested on: MCF7 breast
MDA-MB-231 breast = tested on: MDA-MB-231 breast
MDA-MB-435 melanoma = tested on: MDA-MB-435 melanoma
MDA-MB-468 breast = tested on: MDA-MB-468 breast
MOLT-4 leukemia = tested on: MOLT-4 leukemia
NCI-H226 lung = tested on: NCI-H226 lung
NCI-H23 lung = tested on: NCI-H23 lung
NCI-H322M lung = tested on: NCI-H322M lung
NCI-H460 NSCLC = tested on: NCI-H460 NSCLC
NCI-H522 lung = tested on: NCI-H522 lung
NCI/ADR-RES ovarian = tested on: NCI/ADR-RES ovarian
OVCAR-3 ovarian = tested on: OVCAR-3 ovarian
OVCAR-4 ovarian = tested on: OVCAR-4 ovarian
OVCAR-8 ovarian = tested on: OVCAR-8 ovarian
PC-3 prostate = tested on: PC-3 prostate
RPMI-8226 leukemia = tested on: RPMI-8226 leukemia
RXF 393 renal = tested on: RXF 393 renal
SF-268 CNS = tested on: SF-268 CNS
SF-295 CNS = tested on: SF-295 CNS
SF-539 CNS = tested on: SF-539 CNS
SK-MEL-28 melanoma = tested on: SK-MEL-28 melanoma
SK-MEL-5 melanoma = tested on: SK-MEL-5 melanoma
SK-OV-3 ovarian = tested on: SK-OV-3 ovarian
SN12C renal = tested on: SN12C renal
SNB-19 CNS = tested on: SNB-19 CNS
SNB-75 CNS = tested on: SNB-75 CNS
SR leukemia = tested on: SR leukemia
SW-620 colon = tested on: SW-620 colon
T-47D breast = tested on: T-47D breast
TK-10 renal = tested on: TK-10 renal
U251 glioblastoma = tested on: U251 glioblastoma
UACC-257 melanoma = tested on: UACC-257 melanoma
UACC-62 melanoma = tested on: UACC-62 melanoma
UO-31 renal = tested on: UO-31 renal

Q: `CC(C)c1cc(CNc2nc(Nc3cc(C4CC4)[nH]n3)cc(N3CCN(C)CC3)n2)on1` was tested. Which GI50 ([…]-0 renal) did it give?
A: 0.135 µM

Q: And the TGI (786-0 renal)?
A: 0.904 µM

Q: What about the GI50 (A498 renal) of the same compound?
A: 0.189 µM

Q: And the TGI (A498 renal)?
A: 12.4 µM

Q: What about the GI50 (A549 NSCLC) of the same compound?
A: 0.0201 µM

Q: And the TGI (A549 NSCLC)?
A: 6.83 µM

Q: And the GI50 (ACHN renal)?
A: 0.225 µM

Q: What about the TGI (ACHN renal) of the same compound?
A: 13.4 µM

Q: And the GI50 (BT-549 breast)?
A: 0.0341 µM

Q: And the TGI (BT-549 breast)?
A: 0.197 µM

Q: What about the GI50 (COLO 205 colon) of the same compound?
A: < 0.01 µM

Q: What about the TGI (COLO 205 colon) of the same compound?
A: 0.0211 µM

Q: And the GI50 (DU-145 prostate)?
A: 0.12 µM

Q: And the TGI (DU-145 prostate)?
A: 0.769 µM

Q: And the GI50 (EKVX NSCLC)?
A: 0.0288 µM

Q: What about the TGI (EKVX NSCLC) of the same compound?
A: 0.359 µM

Q: And the GI50 (HCC-2998 colon)?
A: 0.203 µM

Q: And the TGI (HCC-2998 colon)?
A: 1.98 µM

Q: And the GI50 (HCT-15 colon)?
A: 0.246 µM

Q: What about the TGI (HCT-15 colon) of the same compound?
A: 2.93 µM

Q: And the GI50 (HL-60(TB) leukemia)?
A: < 0.01 µM

Q: What about the GI50 (HOP-62 NSCLC) of the same compound?
A: 0.0692 µM

Q: And the TGI (HOP-62 NSCLC)?
A: 0.306 µM

Q: What about the GI50 (HS 578T breast) of the same compound?
A: 0.0423 µM

Q: What about the TGI (HS 578T breast) of the same compound?
A: 0.204 µM

Q: And the GI50 (HT29 colon)?
A: 0.0217 µM

Q: What about the TGI (HT29 colon) of the same compound?
A: 1.48 µM

Q: And the GI50 (K-562 leukemia)?
A: < 0.01 µM

Q: And the TGI (K-562 leukemia)?
A: 0.0178 µM

Q: And the GI50 (KM12 colon)?
A: < 0.01 µM

Q: What about the TGI (KM12 colon) of the same compound?
A: 0.0638 µM

Q: What about the GI50 (LOX IMVI melanoma) of the same compound?
A: 0.0298 µM

Q: What about the TGI (LOX IMVI melanoma) of the same compound?
A: 0.164 µM

Q: What about the GI50 (M14 melanoma) of the same compound?
A: 0.016 µM

Q: And the TGI (M14 melanoma)?
A: 1.74 µM

Q: What about the GI50 (MALME-3M melanoma) of the same compound?
A: 0.0455 µM

Q: What about the TGI (MALME-3M melanoma) of the same compound?
A: 1.85 µM

Q: And the GI50 (MCF7 breast)?
A: < 0.01 µM

Q: What about the TGI (MCF7 breast) of the same compound?
A: 10.9 µM

Q: What about the GI50 (MDA-MB-231 breast) of the same compound?
A: 0.0378 µM

Q: And the TGI (MDA-MB-231 breast)?
A: 1.49 µM

Q: And the GI50 (MDA-MB-435 melanoma)?
A: 0.209 µM

Q: What about the TGI (MDA-MB-435 melanoma) of the same compound?
A: 2.42 µM

Q: And the GI50 (MDA-MB-468 breast)?
A: 0.0141 µM

Q: What about the TGI (MDA-MB-468 breast) of the same compound?
A: 0.0426 µM

Q: What about the GI50 (MOLT-4 leukemia) of the same compound?
A: < 0.01 µM

Q: And the TGI (MOLT-4 leukemia)?
A: 0.0169 µM

Q: What about the GI50 (NCI-H226 lung) of the same compound?
A: 0.0174 µM

Q: What about the TGI (NCI-H226 lung) of the same compound?
A: 0.132 µM

Q: What about the GI50 (NCI-H23 lung) of the same compound?
A: 0.0145 µM

Q: What about the TGI (NCI-H23 lung) of the same compound?
A: 0.189 µM

Q: And the GI50 (NCI-H322M lung)?
A: 0.238 µM

Q: And the TGI (NCI-H322M lung)?
A: 1.28 µM

Q: What about the GI50 (NCI-H460 NSCLC) of the same compound?
A: < 0.01 µM

Q: What about the TGI (NCI-H460 NSCLC) of the same compound?
A: 0.141 µM

Q: What about the GI50 (NCI-H522 lung) of the same compound?
A: 0.0149 µM

Q: And the TGI (NCI-H522 lung)?
A: 0.598 µM

Q: And the GI50 (NCI/ADR-RES ovarian)?
A: 2.67 µM

Q: And the TGI (NCI/ADR-RES ovarian)?
A: 14.1 µM

Q: What about the GI50 (OVCAR-3 ovarian) of the same compound?
A: 0.0316 µM

Q: And the TGI (OVCAR-3 ovarian)?
A: 0.4 µM

Q: And the GI50 (OVCAR-4 ovarian)?
A: 1.16 µM

Q: And the TGI (OVCAR-4 ovarian)?
A: 4.54 µM

Q: What about the GI50 (OVCAR-8 ovarian) of the same compound?
A: 0.165 µM

Q: What about the TGI (OVCAR-8 ovarian) of the same compound?
A: 1.15 µM

Q: What about the GI50 (PC-3 prostate) of the same compound?
A: 0.0815 µM

Q: And the TGI (PC-3 prostate)?
A: 2.61 µM

Q: What about the GI50 (RPMI-8226 leukemia) of the same compound?
A: 0.0196 µM

Q: What about the TGI (RPMI-8226 leukemia) of the same compound?
A: 0.188 µM

Q: And the GI50 (RXF 393 renal)?
A: 0.0604 µM

Q: And the TGI (RXF 393 renal)?
A: 0.248 µM

Q: And the GI50 (SF-268 CNS)?
A: 0.0307 µM

Q: And the TGI (SF-268 CNS)?
A: 0.26 µM

Q: What about the GI50 (SF-295 CNS) of the same compound?
A: 0.063 µM

Q: What about the TGI (SF-295 CNS) of the same compound?
A: 1.05 µM

Q: What about the GI50 (SF-539 CNS) of the same compound?
A: 0.0311 µM

Q: What about the TGI (SF-539 CNS) of the same compound?
A: 0.228 µM

Q: And the GI50 (SK-MEL-28 melanoma)?
A: 0.121 µM

Q: And the TGI (SK-MEL-28 melanoma)?
A: 1.39 µM

Q: What about the GI50 (SK-MEL-5 melanoma) of the same compound?
A: 0.258 µM

Q: And the TGI (SK-MEL-5 melanoma)?
A: 1.73 µM

Q: And the GI50 (SK-OV-3 ovarian)?
A: 0.0696 µM

Q: What about the TGI (SK-OV-3 ovarian) of the same compound?
A: 12.7 µM

Q: And the GI50 (SN12C renal)?
A: 0.0224 µM

Q: And the TGI (SN12C renal)?
A: 0.207 µM

Q: What about the GI50 (SNB-19 CNS) of the same compound?
A: 0.136 µM

Q: And the TGI (SNB-19 CNS)?
A: 11.7 µM

Q: And the GI50 (SNB-75 CNS)?
A: 0.0136 µM

Q: What about the TGI (SNB-75 CNS) of the same compound?
A: 0.165 µM

Q: And the GI50 (SR leukemia)?
A: < 0.01 µM

Q: What about the GI50 (SW-620 colon) of the same compound?
A: 0.0239 µM

Q: And the TGI (SW-620 colon)?
A: 1.19 µM

Q: And the GI50 (T-47D breast)?
A: 0.267 µM

Q: And the TGI (T-47D breast)?
A: 17.3 µM

Q: And the GI50 (TK-10 renal)?
A: 0.137 µM

Q: And the TGI (TK-10 renal)?
A: 0.587 µM

Q: What about the GI50 (U251 glioblastoma) of the same compound?
A: 0.209 µM

Q: And the TGI (U251 glioblastoma)?
A: 10.5 µM

Q: What about the GI50 (UACC-257 melanoma) of the same compound?
A: 1.23 µM

Q: And the TGI (UACC-257 melanoma)?
A: 2.73 µM

Q: What about the GI50 (UACC-62 melanoma) of the same compound?
A: 0.0473 µM

Q: What about the TGI (UACC-62 melanoma) of the same compound?
A: 1.59 µM

Q: What about the GI50 (UO-31 renal) of the same compound?
A: 0.221 µM

Q: And the TGI (UO-31 renal)?
A: 1.27 µM
